According to the NIST ThermoML archive (doi:10.1021/acs.jced.8b00103):

Columns and labels:
[1] = xn = mol fraction of the nth substance listed; conditions: 101 kPa, Liquid, Vibrating tube method
[2] = Liquid; for mass density: 101 kPa, Vibrating tube method; for vapor or sublimation pressure: Ebulliometric method (Recirculating still)
[3] = refractive index (Na D-line) (dimensionless); conditions: 293.15 K; 101.33 kPa; Liquid; Standard Abbe refractometry

CC(C)O [propan-2-ol] + CC(C)CO
[1], x1 = 1
Conditions | mass density [kg/m3]
333.15 K | 749.23
343.15 K | 739.46
353.15 K | 729.1

CC(C)CO [2-methyl-1-propanol]
[2]
Conditions | mass density [kg/m3] | vapor or sublimation pressure [kPa]
333.15 K | 769.49 | 12.3
343.15 K | 760.79 | 21
353.15 K | 751.86 | 32.7

Conditions | refractive index
[3] | 1.3962

CC(C)CO [2-methyl-1-propanol] + CC(C)O
mass density [kg/m3], [1]
Conditions | 333.15 K | 343.15 K | 353.15 K
x2 = 0 | 769.49 | 760.79 | 751.86
x2 = 0.042 | 768.8 | 760.07 | 751.1
x2 = 0.1428 | 767.1 | 758.28 | 749.19
x2 = 0.1913 | 766.26 | 757.39 | 748.25
x2 = 0.2906 | 764.49 | 755.53 | 746.26
x2 = 0.3911 | 762.62 | 753.57 | 744.18
x2 = 0.4444 | 761.6 | 752.49 | 743.03
x2 = 0.4993 | 760.52 | 751.36 | 741.83
x2 = 0.5485 | 759.52 | 750.32 | 740.72
x2 = 0.594 | 758.58 | 749.33 | 739.66
x2 = 0.6911 | 756.5 | 747.14 | 737.33
x2 = 0.7445 | 755.31 | 745.88 | 735.99
x2 = 0.8481 | 752.91 | 743.36 | 733.3
x2 = 0.8925 | 751.85 | 742.24 | 732.1
x2 = 0.9491 | 750.48 | 740.78 | 730.53

CC(C)O [propan-2-ol]
[2]
Conditions | mass density [kg/m3] | vapor or sublimation pressure [kPa]
333.15 K | 749.23 | 38.5
343.15 K | 739.46 | 61.1
353.15 K | 729.1 | 92.3

Conditions | refractive index
[3] | 1.3774
